Laboratory results published in US6126909A, “Process and apparatus for the production of BI-212 and a use thereof” (Arch Development Corporation, priority 1999, dated 2000).

Experiments:
[1] = Solubility of Bi-212 at various pH values (0.22 μ filter); assay type: physicochemical
Experimental: The solubility was measured by passing the solution through a 0.22 μ Nalgene® filter and measuring the activity of the resulting solution and the activity of the filter.

[2] = Toxicity studies, intraperitoneal graded doses; assay type: in vivo, rabbit
Experimental: (§1) In vivo studies were conducted to determine the distribution of Bi-212 produced using the above-noted process and to compare the Bi-212 distribution to the distribution of Pb-212 ferrous hydroxide in colloidal form. The in vivo studies were conducted using white, female New Zealand rabbits weighing about 4.5 kilograms ([…]) each. Studies were also conducted using rabbits to determine the toxicity levels, e.g., the maximum tolerated dose. Efficacy studies were conducted using 25 gram (gm) female Swiss-Webster mice inoculated with Ehrlich-Lettre Ascites carcinoma cells.
The peritoneal cavities of rabbits were instilled with graded doses of Bi-212. The rabbits were followed until death or for up to three months after their blood counts normalized. The rabbits were necropsied at death or termination of the study and their organs were microscopically examined to determine the effect of the Bi-212 on healthy organs.

[3] = system: Ehrlich-Lettre Ascites carcinoma cells; test: Efficacy study in mice inoculated with carcinoma cells; assay type: in vivo, mouse; settings: 100 μCi i.p.
Experimental: as §1
Efficacy studies were conducted using groups of five 25 gm female Swiss-Webster mice that were intraperitoneally inoculated with 10^6 Ehrlich-Lettre Ascites carcinoma cells. The mice were subsequently instilled with 100 μCi of Bi-212 in up to 1 cc normal saline 48 hours after inoculation with the Ehrlich-Lettre Ascites carcinoma cells. The mice were sacrificed at one-half hour, one hour and 3 hours after instillation with the Bi-212 solution. Control groups were inoculated with the Ehrlich-Lettre Ascites carcinoma cells only.

[4] = Estimated radiation dose in humans; set-up: species or system human; Gamma dose/100 mCi / Alpha dose/100 mCi / Total dose: unit: cGy; settings: for Total dose / Calculated alpha dose / Calculated gamma dose: 100 mCi
From the text: Based upon the in vivo studies, a contemplated dose of 100 mCi to a human produces an alpha and gamma dose to any organ of less than 150 cGy. The calculated alpha dose to the gastrointestinal tract, liver and kidneys is 87.7, 24.6 and 92.5 cGy, respectively, and the calculated gamma dose is 7.39, 4.14 and 5.00 cGy, respectively. Table 9, below, provides the estimated total dose in humans based upon an initial dose of 100 mCi of Bi-212.

[212Bi] [Bi-212, bismuth-212]
Maintained in solution ([1]; acidic pH): maintained in solution at an acidic pH value | Activity in solution ([1]; pH 6): 5.55 mCi | Activity on filter ([1]; pH 6): 0.24 mCi | Percent activity in solution ([1]; pH 6): 96% | Percent activity on filter ([1]; pH 6): 4% | Activity in solution ([1]; pH 7): 3.24 mCi | Activity on filter ([1]; pH 7): 0.023 mCi | Percent activity in solution ([1]; pH 7): 94% | Percent activity on filter ([1]; pH 7): 6% | Activity in solution ([1]; pH 8): 1.90 mCi | Activity on filter ([1]; pH 8): 0.50 mCi | Percent activity in solution ([1]; pH 8): 83% | Percent activity on filter ([1]; pH 8): 17% | Activity in solution ([1]; pH 9): 0.65 mCi | Activity on filter ([1]; pH 9): 1.35 mCi | Percent activity in solution ([1]; pH 9): 32% | Percent activity on filter ([1]; pH 9): 68% | Solubility dependence on pH ([1]; radio-impurity-free solution): solubility increasing with a decrease in pH value | Microscopic examination of organs ([2]; 60 mCi, three months after instillation): only mild blunting of intestinal villi | Histology, small and large intestines ([2]; 80 mCi): marked individual cell necrosis of gland epithelium of the small and large intestines | Survival ([2]; 80 mCi): survived about three days | Histology ([2]; 100 mCi): diffuse epithelial necrosis | Survival ([2]; 100 mCi): survived about three days | Mortality ([2]; doses greater than 60 mCi): death within three days | Maximum dose tolerated ([2]; rabbits, intraperitoneal): 60 mCi | Median survival time ([3]; 48 hours after 10^6 cells, after treatment): 82 days | Cure with no evidence of disease ([3]; 3 months later): 40% | Alpha dose/100 mCi ([4]; GI tract): 87.7 | Gamma dose/100 mCi ([4]; GI tract): 7.39 | Total dose ([4]; GI tract): 95.1 | Alpha dose/100 mCi ([4]; brain): 2.45 | Gamma dose/100 mCi ([4]; brain): 0.038 | Total dose ([4]; brain): 2.49 | Alpha dose/100 mCi ([4]; breasts): 2.45 | Gamma dose/100 mCi ([4]; breasts): 0.643 | Total dose ([4]; breasts): 3.09 | Alpha and gamma dose to any organ ([4]; contemplated dose of 100 mCi to a human): less than 150 cGy | Calculated alpha dose ([4]; gastrointestinal tract): 87.7 cGy | Calculated gamma dose ([4]; gastrointestinal tract): 7.39 cGy | Alpha dose/100 mCi ([4]; kidneys): 92.5 | Gamma dose/100 mCi ([4]; kidneys): 5.00 | Calculated alpha dose ([4]; kidneys): 92.5 cGy | Calculated gamma dose ([4]; kidneys): 5.00 cGy | Total dose ([4]; kidneys): 97.5 | Alpha dose/100 mCi ([4]; liver): 24.6 | Gamma dose/100 mCi ([4]; liver): 4.14 | Calculated alpha dose ([4]; liver): 24.6 cGy | Calculated gamma dose ([4]; liver): 4.14 cGy | Total dose ([4]; liver): 28.7 | Alpha dose/100 mCi ([4]; lungs): 2.45 | Gamma dose/100 mCi ([4]; lungs): 1.33 | Total dose ([4]; lungs): 3.78 | Alpha dose/100 mCi ([4]; ovaries): 102.4 | Gamma dose/100 mCi ([4]; ovaries): 5.42 | Total dose ([4]; ovaries): 107.8 | Alpha dose/100 mCi ([4]; pancreas): 2.45 | Gamma dose/100 mCi ([4]; pancreas): 17.2 | Total dose ([4]; pancreas): 19.7 | Alpha dose/100 mCi ([4]; red marrow): 2.45 | Gamma dose/100 mCi ([4]; red marrow): 2.30 | Total dose ([4]; red marrow): 4.75 | Alpha dose/100 mCi ([4]; remainder): 2.45 | Gamma dose/100 mCi ([4]; remainder): 1.78 | Total dose ([4]; remainder): 4.23 | Alpha dose/100 mCi ([4]; thyroid): 2.45 | Gamma dose/100 mCi ([4]; thyroid): 0.154 | Total dose ([4]; thyroid): 2.60 | Alpha dose/100 mCi ([4]; total body): 2.45 | Gamma dose/100 mCi ([4]; total body): 1.83 | Total dose ([4]; total body): 4.28 | Alpha dose/100 mCi ([4]; uterus): 102.4 | Gamma dose/100 mCi ([4]; uterus): 21.2 | Total dose ([4]; uterus): 123.6
